Data on 28 compounds can be found in patent EP0423818B1, “Arylsulfatase” (Bristol-Myers Squibb Company, priority 1989, dated 1991).

For data set [1], the system named is Es-2 sulfatase. The experiment in a line: Effect of metal ions on sulfatase activity (p-nitrophenyl sulfate hydrolysis, UV at 415 nm). As to conditions: ion 1 mM; enzyme 0.6 u; p-nitrophenyl sulfate 4 mM; Tris-HCl 50 mM; 30 minutes at 37°C. Type of data set: biochemical, Streptomyces sp. T109-3. As for the experimental part:
Sulfatase activity during purification is monitored by determining the conversion of p-nitrophenylsulfate into p-nitrophenol using spectrophotometric means. Specifically, the following assay method is used. 50 µl of a p-nitrophenylsulfate solution (1 mg/ml in 50 mM Tris-HCl, pH7.5), 50 µl of a sample, and 100 µl of 50 mM Tris-HCl, pH 7.5, are mixed and incubated for 30 minutes at 37°C. If the activity is weak, the incubation time is prolonged up to 18 hours. The liberated p-nitrophenol is determined spectrophotometrically at 415 nm. From standard curves of p-nitrophenol and protein concentrations, the unit or specific activity per mg of the enzyme is calculated. The protein concentration is determined by measuring the absorption at 280 nm throughout purification and, in case of homogeneous protein, by the Bradford method [Bradford, M., et al., Anal. Biochem., 1976, 72:248-254] using bovine serum albumin as the standard protein. A unit of sulfatase activity is defined as the amount of enzyme which can hydrolyze one nanomole of p-nitrophenyl sulfate to p-nitrophenol in one minute at 37°C at pH 7.5.
(§1) (a) Optimum pH. The enzyme solution (0.6 u in 50 µl of 50 mM Tris-HCl, pH 7.5) was mixed with 100 µl each of the following buffers: 500 mM sodium acetate (pH 4.0-5.5), 500 mM Tris-maleate (pH 5.5-7.7), 500 mM Tris-HCl (pH 7.5-9.0), and 500 mM glycine-NaOH (pH 9.0-10.0). The substrate, p-nitrophenylsulfate, was similarly dissolved in each of the above buffers (1 mg/ml). A sample (150 µl) from the enzyme solution is mixed with the substrate (50 µl) in the same buffer, and the mixture was incubated for 30 minutes at 37°C. The enzyme activity in each buffer was determined spectrophotometrically by UV at 415 nm. The optimal pH of the enzyme was thus determined to be about 9.0 (Fig. 1A). (b) pH stability. The stock enzyme solution was dialyzed against water to remove salts. The enzyme solution was adjusted to 0.6 u/10 µl with Tris-HCl buffer (pH 7.5). This solution (10 µl) was mixed with 40 µl each of the buffer listed in (a) and incubated for 30 minutes at 30°C. The enzyme sample (50 µl) was mixed with 100 µl of 500 mM Tris-HCl (pH 9.0) and 50 µl of substrate in water (1mg/ml), and the mixture was incubated at 37°C for 30 minutes to determine the residual enzyme activity. […] (c) Optimum temperature. Enzyme (0.6 u) in 150 µl of 50 mM Tris-HCl (pH 9.0) were incubated with p-nitrophenylsulfate (1 mg/ml, 50 µl) in the same buffer (pH 9.0) for 30 minutes at various temperatures (200 µl each). […] (d) Temperature stability. Enzyme preparations (0.6 u) in 50 mM Tris-HCl (150 µl, pH 9.0) were incubated for 15 minutes at various temperatures and then cooled in an ice bath. p-Nitrophenylsulfate (1 mg/ml, 50 µl) was added to the enzyme solution, and the mixture was incubated for 30 minutes at 37°C. The enzyme was stable below 30°C at pH 9.0 (Fig. 2B). (e) Effect of ions. Enzyme (0.6 u), p-nitrophenyl sulfate 4 mM, and ion 1 mM were dissolved in 200 µl of Tris-HCl (50 mM). The solution was incubated for 30 minutes at 37°C. p-Nitrophenol released was spectrophotometrically assayed by UV at 415 nm. […]

The test system of data set [2] is Es-2 sulfatase. The data set can be described thus: Effect of enzyme inhibitors on sulfatase activity (protocol as for ions). Type of data set: biochemical, Streptomyces sp. T109-3. As for the experimental part:
(a) Optimum pH. The enzyme solution (0.6 u in 50 µl of 50 mM Tris-HCl, pH 7.5) was mixed with 100 µl each of the following buffers: 500 mM sodium acetate (pH 4.0-5.5), 500 mM Tris-maleate (pH 5.5-7.7), 500 mM Tris-HCl (pH 7.5-9.0), and 500 mM glycine-NaOH (pH 9.0-10.0). The substrate, p-nitrophenylsulfate, was similarly dissolved in each of the above buffers (1 mg/ml). A sample (150 µl) from the enzyme solution is mixed with the substrate (50 µl) in the same buffer, and the mixture was incubated for 30 minutes at 37°C. The enzyme activity in each buffer was determined spectrophotometrically by UV at 415 nm. […] (b) pH stability. The stock enzyme solution was dialyzed against water to remove salts. The enzyme solution was adjusted to 0.6 u/10 µl with Tris-HCl buffer (pH 7.5). This solution (10 µl) was mixed with 40 µl each of the buffer listed in (a) and incubated for 30 minutes at 30°C. The enzyme sample (50 µl) was mixed with 100 µl of 500 mM Tris-HCl (pH 9.0) and 50 µl of substrate in water (1mg/ml), and the mixture was incubated at 37°C for 30 minutes to determine the residual enzyme activity. […] (c) Optimum temperature. Enzyme (0.6 u) in 150 µl of 50 mM Tris-HCl (pH 9.0) were incubated with p-nitrophenylsulfate (1 mg/ml, 50 µl) in the same buffer (pH 9.0) for 30 minutes at various temperatures (200 µl each). […] (d) Temperature stability. Enzyme preparations (0.6 u) in 50 mM Tris-HCl (150 µl, pH 9.0) were incubated for 15 minutes at various temperatures and then cooled in an ice bath. p-Nitrophenylsulfate (1 mg/ml, 50 µl) was added to the enzyme solution, and the mixture was incubated for 30 minutes at 37°C. […] (e) Effect of ions. Enzyme (0.6 u), p-nitrophenyl sulfate 4 mM, and ion 1 mM were dissolved in 200 µl of Tris-HCl (50 mM). The solution was incubated for 30 minutes at 37°C. p-Nitrophenol released was spectrophotometrically assayed by UV at 415 nm.
(f) Effect of enzyme inhibitors. The protocol used in (e) was followed with the exception that 1 mM of an enzyme inhibitor was used instead of a metal ion.

Data set [3] has as its system Es-2 sulfatase. The experiment in a line: Effect of salts on sulfatase activity (protocol as for ions). The format is biochemical, Streptomyces sp. T109-3. As to conditions: 5 mM of a salt; for % Inhibit.: p-nitrophenyl sulfate 4 mM, 30 minutes at 37°C. The protocol:
as §1
(g) Effect of salts. The protocol used in (e) was followed, except that 5 mM of a salt was used instead of 1 mM of a metal ion. […]

Data set [4] has as its system sulfatase of the invention. The data set can be described thus: Substrate specificity: etoposide derivatives incubated with the enzyme, TLC analysis. As to conditions: substrate 50 µl, 1 mg/ml; enzyme 0.6 u; 37°C for 30 minutes; silica gel TLC. Type of data set: biochemical, Streptomyces sp. T109-3. The protocol:
(h) Substrate specificity. Four etoposide derivatives were tested as substrate for the sulfatase of the invention. The substrates are: etoposide 4'-sulfate (III), 2",3"-di-O-acetyl-etoposide-4'-sulfate (IV), etoposide 2"-sulfate (V), and etoposide 3"-sulfate (VI). The substrate (50 µl, 1 mg/ml, MeOH:H2O = 1:1, pH 9.0) and the enzyme (50 µl, 0.6 u, 50 mM Tris-HCl, pH 7.5) were mixed and incubated at 37°C for 30 minutes. The mixture was then analyzed on a silica gel TLC plate using a solvent system consisting of chloroform-methanol (10:1 v/v).

The test system of data set [5] is Es-2 sulfatase. The experiment in a line: EDTA treatment of the enzyme and recovery of activity by Ca2+. As to conditions: 10 mM of EDTA followed by dialysis against water. The format is biochemical, Streptomyces sp. T109-3. The protocol:
(a) Optimum pH. The enzyme solution (0.6 u in 50 µl of 50 mM Tris-HCl, pH 7.5) was mixed with 100 µl each of the following buffers: 500 mM sodium acetate (pH 4.0-5.5), 500 mM Tris-maleate (pH 5.5-7.7), 500 mM Tris-HCl (pH 7.5-9.0), and 500 mM glycine-NaOH (pH 9.0-10.0). The substrate, p-nitrophenylsulfate, was similarly dissolved in each of the above buffers (1 mg/ml). A sample (150 µl) from the enzyme solution is mixed with the substrate (50 µl) in the same buffer, and the mixture was incubated for 30 minutes at 37°C. The enzyme activity in each buffer was determined spectrophotometrically by UV at 415 nm. The optimal pH of the enzyme was thus determined to be about 9.0 (Fig. 1A). (b) pH stability. The stock enzyme solution was dialyzed against water to remove salts. The enzyme solution was adjusted to 0.6 u/10 µl with Tris-HCl buffer (pH 7.5). This solution (10 µl) was mixed with 40 µl each of the buffer listed in (a) and incubated for 30 minutes at 30°C. The enzyme sample (50 µl) was mixed with 100 µl of 500 mM Tris-HCl (pH 9.0) and 50 µl of substrate in water (1mg/ml), and the mixture was incubated at 37°C for 30 minutes to determine the residual enzyme activity. […] (c) Optimum temperature. Enzyme (0.6 u) in 150 µl of 50 mM Tris-HCl (pH 9.0) were incubated with p-nitrophenylsulfate (1 mg/ml, 50 µl) in the same buffer (pH 9.0) for 30 minutes at various temperatures (200 µl each). […]

For data set [6] the following is noted: background statement; compound disclosed in Japanese Kokai 88/192,793; cited from earlier work.
Setting [7] is: 1 mM of an enzyme inhibitor, p-nitrophenyl sulfate 4 mM, 30 minutes at 37°C.

Take CoCl2: in the data set on Es-2 sulfatase [1], the “Inhibit. (%)” value was determined as 66% and the “Rel. Activity (%)” value is 34%. With AlCl3, in the data set on Es-2 sulfatase [1], the “Inhibit. (%)” value is given as 33% and the “Rel. Activity (%)” value is listed as 67%. `O=S(=O)(F)Cc1ccccc1` [Phenylmethanesulfonyl fluoride]: the “% Inhibit.” value in the data set with Es-2 sulfatase [2] (setting [7]) is on record as 81%. The same measure, in the same setting: the same measure for `O[C@H](CS)[C@H](O)CS` (racemic) [Dithiothreitol]: 34%. Still for that read-out and setting: the same measure for `O=C(O)CC(O)(CC(=O)O)C(=O)O` [Citrate]: 87%. In the case of FeCl3, in the data set with Es-2 sulfatase [1], the “Inhibit. (%)” value is reported as 49% and the “Rel. Activity (%)” value came to 51%. On to `N[C@@H](CS)C(=O)O` [Cysteine], for which, in the data set on Es-2 sulfatase [2] (setting [7]), the “% Inhibit.” value turned out to be 18%. Consider CuCl2, for which, in the data set on Es-2 sulfatase [1], the “Inhibit. (%)” value amounted to 44% and the “Rel. Activity (%)” value is recorded as 56%.

`O=C(O)CI` [Iodoacetic acid]: the “% Inhibit.” value in the data set with Es-2 sulfatase [2] (1000 µM) came out at 96%. With NiCl2, in the data set on Es-2 sulfatase [1], the “Inhibit. (%)” value amounted to 41% and the “Rel. Activity (%)” value amounted to 59%. Turning to K2HPO4, in the data set on Es-2 sulfatase [3], the “inhibition of sulfatase activity (in words)” value is on record as “strongly inhibited” and the “% Inhibit.” value was determined as 100%. For the compound CaCl2, the “Rel. Activity (%)” value in the data set with Es-2 sulfatase [1] was 213%. Take BaCl2: in the data set on Es-2 sulfatase [1], the “Inhibit. (%)” value is 17% and the “Rel. Activity (%)” value turned out to be 83%. Turning to (NH4)2SO4, in the data set on Es-2 sulfatase [3], the “% Inhibit.” value was determined as 44%.

As for `COc1cc([C@@H]2c3cc4c(cc3[C@@H](O[C@@H]3O[C@@H]5CO[C@@H](C)O[C@H]5[C@H](OC(C)=O)[C@H]3OC(C)=O)[C@H]3COC(=O)[C@H]23)OCO4)cc(OC)c1OS(=O)(=O)O` [(IV), 2",3"-di-O-acetyl-etoposide-4'-sulfate], in data set [4], the “substrate for the enzyme” value is reported as “are not”. As for K2SO4, the “% Inhibit.” value in the data set on Es-2 sulfatase [3] stood at 36%. On to `OCCS` [2-Mercaptoethanol], for which, in the data set on Es-2 sulfatase [2] (setting [7]), the “% Inhibit.” value is on record as 22%. For the compound FeCl2, in the data set with Es-2 sulfatase [1], the “Inhibit. (%)” value was determined as 88% and the “Rel. Activity (%)” value turned out to be 12%. As to `O=C(O)c1cc[c]([Hg][Cl])cc1` [p-Chloromercuribenzoic acid], in the data set on Es-2 sulfatase [2] (setting [7]), the “% Inhibit.” value was 78%. On the same count and under the same terms, the same measure for `c1c[nH]cn1` [Imidazole]: 14%.

Regarding `O=C(O)CN(CCN(CC(=O)O)CC(=O)O)CC(=O)O` [EDTA], the “sulfatase activity after treatment of the enzyme with EDTA” value with Es-2 sulfatase [5] is reported as “the sulfatase activity disappeared”. Also, in the data set with Es-2 sulfatase [2] (1000 µM), the “% Inhibit.” value came out at 69%.

Turning to ZnCl2, in the data set with Es-2 sulfatase [1], the “Inhibit. (%)” value was determined as 82% and the “Rel. Activity (%)” value worked out at 18%.

Take `CCN1C(=O)C=CC1=O` [N-Ethylmaleimide]: the “% Inhibit.” value in the data set with Es-2 sulfatase [2] (setting [7]) amounted to 35%. Turning to `COc1cc([C@@H]2c3cc4c(cc3[C@@H](O[C@@H]3O[C@@H]5CO[C@@H](C)O[C@H]5[C@H](O)[C@H]3O)[C@H]3COC(=O)[C@H]23)OCO4)cc(OC)c1OS(=O)(=O)O` [(III), etoposide 4'-sulfate], the “substrate for the enzyme” value in data set [4] was “are not”. Further, the “cytotoxicity relative to etoposide” value in data set [6] is reported as “much less cytotoxic than etoposide itself”. For the compound `[Cl][Hg][Cl]` [HgCl2], in the data set on Es-2 sulfatase [1], the “Inhibit. (%)” value is listed as 100% and the “Rel. Activity (%)” value is 0%. Regarding `c1cnc2c(c1)ccc1cccnc12` [1,10-Phenanthroline], the “% Inhibit.” value in the data set with Es-2 sulfatase [2] (setting [7]) was determined as 60%. As for MnCl2, in the data set with Es-2 sulfatase [1], the “Inhibit. (%)” value is reported as 66% and the “Rel. Activity (%)” value is reported as 34%. As to NaCl, the “% Inhibit.” value with Es-2 sulfatase [3] was 58%.
